Results taken from patent US20220064138A1, “MACROLIDE BREFELDIN A ESTER DERIVATIVES AND USE THEREOF” (OCEAN UNIVERSITY OF CHINA, priority 2019, published 2022).

Assays:
Assay in all cases: Cell proliferation assay (CCK-8)
Assay type in all cases: cell-based
[1] = tested on: human gastric cancer MKN-45 cells; conditions: MKN-45, 72 h
Excerpt: (§1) CCK-8 method: The CCK-8 method is a highly sensitive, non-radioactive colorimetric assay for the determination of the number of viable cells in cell proliferation or cytotoxicity assays. The orange formazan dye produced by the bioreduction of CCK-8 by intracellular dehydrogenase is soluble in the cell culture medium, and the amount of formazan dye produced is proportional to the number of living cells. The kit used in this method is the tetrazolium salt-WST-8 (2-(2-methoxy-4-nitrophenyl)-3-(4-nitrophenyl)-5-(2,4-disulfophenyl)-2H-tetrazolium monosodium salt) developed by Dojindo Chemical Research Institute (Dojindo), which is capable of being reduced to a water-soluble formazan dye in the presence of the electronic carrier 1-Methoxy PMS.
(§2) Human cervical cancer Hela cells, pancreatic cancer PANC-1 cells, esophageal cancer Eca-109 cells, human leukemia K562 cells, human lung cancer A549 cells, human liver cancer HepG2 cells, human gastric cancer MKN-45 cells, human breast cancer MCF7 cells were cultured in DMEM medium containing 10% FBS (fetal bovine serum), 100 U/mL penicillin and 100 μg/ml streptomycin. Hepatocellular carcinoma cells Bel-7402 were cultured in RPMI-1640 medium containing 10% FBS (fetal bovine serum), 100 U/ml penicillin and 100 μg/ml streptomycin. All cells were placed in a cell culture incubator at 37° C. with 5% CO2. Cells fluid was changed every 3-5 days, and after 80% cell fusion, trypsin digestion and passaging were performed to keep the cells in good logarithmic growth phase.
(§3) All the samples to be tested were dissolved in DMSO.
(§4) Cells in logarithmic growth phase were inoculated in 96-well plates with 5000 cells/well respectively, and after 24 h of incubation, samples were added (final concentrations as shown in the table), and biplicate wells were set up for each sample. The amount of solvent of DMSO was not higher than 2‰. After 72 h, 10 μL of CCK-8 solution was added to each well and incubated for 1.5˜3 h at 37° C. The OD value at 450 nm was measured on an plate reader.
(§5) Inhibition rate (%)=(1−[(OD450 dosed well−OD450 blank well)/(OD450 control well−OD450 blank well)])×100%
(§6) The fitted IC50 values were calculated using the log (inhibitor) vs. response-Variable slop analysis method in GraphPad Prism software.

[2] = tested on: esophageal cancer Eca-109 cells; conditions: Homo sapiens, Eca-109, 72 h
Excerpt: as §1, §2, §3, §4, §5, §6

[3] = tested on: human lung cancer A549 cells; conditions: A549, 72 h
Excerpt: as §1, §2, §3, §4, §5, §6

[4] = tested on: human breast cancer MCF7 cells; conditions: MCF7, 72 h
Excerpt: as §1, §2, §3, §4, §5, §6

[5] = tested on: pancreatic cancer PANC-1 cells; conditions: Homo sapiens, PANC-1, 72 h
Excerpt: as §1, §2, §3, §4, §5, §6

[6] = tested on: human leukemia K562 cells; conditions: K562, 72 h
Excerpt: as §1, §2, §3, §4, §5, §6

[7] = tested on: Human cervical cancer Hela cells; conditions: 72 h
Excerpt: as §1, §2, §3, §4, §5, §6

[8] = tested on: human liver cancer HepG2 cells; conditions: HepG2, 72 h
Excerpt: as §1, §2, §3, §4, §5, §6

| SMILES | IC50 [1] | IC50 [2] | IC50 [3] | IC50 [4] | IC50 [5] | IC50 [6] | IC50 [7] | IC50 [8] |
| --- | --- | --- | --- | --- | --- | --- | --- | --- |
| C[C@H]1CCC/C=C/[C@@H]2C[C@H](O)C[C@H]2[C@H](OC(=O)/C=C/c2ccncc2)/C=C/C(=O)O1 [Compound 14b] | 0.1 to 1 µM | 1 to 10 µM | 0.1 to 1 µM | 0.1 to 1 µM | < 0.1 µM | 0.1 to 1 µM | 0.1 to 1 µM | < 0.1 µM |
| C[C@H]1CCC/C=C/[C@@H]2C[C@H](OC(=O)/C=C/c3ccccn3)C[C@H]2[C@H](OC(=O)/C=C/c2ccccn2)/C=C/C(=O)O1 [Compound 15c] | 1 to 10 µM | 1 to 10 µM | 0.1 to 1 µM | 0.1 to 1 µM | 0.1 to 1 µM | 0.1 to 1 µM | 1 to 10 µM | 0.1 to 1 µM |
| C[C@H]1CCC/C=C/[C@@H]2C[C@H](OC(=O)/C=C/c3ccncc3)C[C@H]2[C@H](O)/C=C/C(=O)O1 [Compound 14a, 7-O-(3-(pyridine-4-yl)acrylic acid)acyl BFA] | 0.1 to 1 µM | 1 to 10 µM | 0.1 to 1 µM | 0.1 to 1 µM | < 0.1 µM | 0.1 to 1 µM | 0.1 to 1 µM | < 0.1 µM |
| C[C@H]1CCC/C=C/[C@@H]2C[C@H](OC(=O)/C=C/c3ccccc3F)C[C@H]2[C@H](O)/C=C/C(=O)O1 [Compound 2a, 7-O-(2-fluorocinnamic acid)acyl BFA] | 0.1 to 1 µM | 1 to 10 µM | 0.1 to 1 µM | 0.1 to 1 µM | 0.1 to 1 µM | 0.1 to 1 µM | 1 to 10 µM | 0.1 to 1 µM |
| C[C@H]1CCC/C=C/[C@@H]2C[C@H](OC(=O)/C=C/c3ccc(C(F)(F)F)cc3)C[C@H]2[C@H](O)/C=C/C(=O)O1 [Compound 13a, 7-O-(4-trifluoromethylcinnamic acid)acyl BFA] | 0.1 to 1 µM | 0.1 to 1 µM | 0.1 to 1 µM | 0.1 to 1 µM | 0.1 to 1 µM | 0.1 to 1 µM | 0.1 to 1 µM | 0.1 to 1 µM |
| C[C@H]1CCC/C=C/[C@@H]2C[C@H](OC(=O)/C=C/c3cccc(Cl)c3)C[C@H]2[C@H](OC(=O)/C=C/c2cccc(Cl)c2)/C=C/C(=O)O1 [Compound 5c, 4,7-O-bis(3-chlorocinnamic acid)acyl BFA] | 0.1 to 1 µM | 1 to 10 µM | 0.1 to 1 µM | 1 to 10 µM | 1 to 10 µM | 1 to 10 µM | 0.1 to 1 µM | 1 to 10 µM |
| C[C@H]1CCC/C=C/[C@@H]2C[C@H](OC(=O)/C=C/c3cnc4ccccc4c3)C[C@H]2[C@H](O)/C=C/C(=O)O1 [Compound 17a, 7-O-(3-(quinoline-3-yl)acrylic acid)acyl BFA] | 0.1 to 1 µM | 0.1 to 1 µM | 0.1 to 1 µM | 0.1 to 1 µM | < 0.1 µM | 0.1 to 1 µM | 0.1 to 1 µM | < 0.1 µM |
